Test results from US4576951A, “Proglumide, pharmaceutical preparations and compositions including it for use in human pain relief” (priority 1983, dated 1986).
Where two headings read alike, the source gives them in different places.

What was measured:
[1] = format: in vivo, rats
Protocol: The method is that described by Harris et al. (J. Pharmcol. Exp. Ther. 143 (1964) 141-148).
Male rats are used which have a weight of about 150-200 g and which have not been fasting. A point is chosen on the tail and this is irradiated by a heat source (75° C.) and the time (in seconds) for which the animal remains without moving its tail is measured.
A maximum period of time under the heat source of 8 seconds is chosen after which the animal is, in any case, removed in order to avoid tissue damage. The measurement is effected before (controls) and after treatment with the drugs. […] The percentage variation is calculated for each individual animal by the following formula: [formula] (time measurements are in seconds)
The measurements are carried out 10, 20, 30, 45, 60 and 90 minutes after treatment with the analgesics.

[2] = Hot plate test: potentiation of analgesic activity of opiates; format: in vivo, rats; details: proglumide 5 mg/kg s.c.
Protocol: The method is that described by Eddy et al. (J. Pharmac. Exp. Therm. 107, 385 (1953)).
Groups of five male rats having a weight of about 150 g and which have not been fasting are used.
The animals are placed on a metal plate which is on the bottom of a transparent cylinder heated to 55°±1° C. by an azeotropic boiling mixture (1:1 acetone-ethyl formate). The time which passes between the moment at which the animal is placed on the hot plate and the moment at which it licks its feet or tries to jump out of the cylinder is defined as the reaction time. The control reaction time is measured 10 and 5 minutes before the administration of the drugs and 10, 20, 30, 45, 60, 90 minutes afterwards. The animals are left on the plate for a maximum period of 30 seconds. The response to the administration of the product is considered positive if at least a doubling of the normal reaction time is seen. The results obtained are given in Table 2 which records the groups treated, the doses administered and the stay times on the plate expressed as the number of positive responses over the number treated.

[3] = Tail Flick Test after transcutaneous shock: analgesic activity of endogenous opiates; format: in vivo, rats
Protocol: Influence of proglumide on the analgesic activity of endogenous opiates released under transcutaneous shock in rats measured by the Tail Flick Test The method is that described by Lewis et al. (J. Naurosc. 1, 358 (1981)). Male rats having a weight of about 200 g, which have not been fasting, are used. The animals are stressed by the application to the front leg of a 60 Hz-2.5 mA current in pulses of a duration of one second every five seconds for 20 minutes. This stress regime causes the release of endogenous opiates.

[4] = format: in vivo, rats; remark: listed apart in the source
Protocol: Activity of proglumide as an antagonist to the tolerance induced by opiates
Groups of five male rats having a weight of about 200-250 g were used.
The determination of the pain threshold was effected 1, 3, 6, 9 and 12 hours after the first treatment by the Tail Flick test.
The data given in Table 5 indicate the percentage variations in the latency (appearance of pain) before and after treatment with the drugs.

[5] = Potentiation of analgesic effect of enkephalinamide (DALA) i.c.v. (Tail Flick test); format: in vivo, rats
Protocol: Potentiation of the analgesic activities of enkephalins induced by proglumide
In order to check one of the possible mechanisms for the action of proglumide, that is its possible inhibition of the enzymatic degradation of endogenous enkephalins, the following experiment was carried out:
A cannula was implanted in the right lateral ventricle of male rats having a weight of 150-200 g (groups of five animals were used) in order to allow the intracerebroventricular (I.C.V.) administration of drugs according to the method of Noble et al (Life Science 6, (1970) 281-291). […]

in vivo = details: mouse, sc
Protocol: The drug (or drugs) under examination was administered sub-cutaneously. The animals were kept under observation for 15 days after the administration.
Ten animals were used for each dose.

[6] = 1 min, proglumide 20 mg/kg, no stress
[7] = 1 min, stress + proglumide 1 mg/kg
[8] = 1 min, stress + proglumide 5 mg/kg
[9] = 1 min, stress + proglumide 20 mg/kg
[10] = 5 min, proglumide 20 mg/kg, no stress
[11] = 5 min, stress + proglumide 1 mg/kg
[12] = 5 min, stress + proglumide 5 mg/kg
[13] = 5 min, stress + proglumide 20 mg/kg
[14] = 10 min, proglumide 20 mg/kg, no stress
[15] = 10 min, stress + proglumide 1 mg/kg
[16] = 10 min, stress + proglumide 5 mg/kg
[17] = 10 min, stress + proglumide 20 mg/kg
[18] = 15 min, proglumide 20 mg/kg, no stress
[19] = 15 min, stress + proglumide 1 mg/kg
[20] = 15 min, stress + proglumide 5 mg/kg
[21] = 15 min, stress + proglumide 20 mg/kg

Q: Which results are given for `CCCN(CCC)C(=O)C(CCC(=O)O)NC(=O)c1ccccc1` (racemic) [Proglumide, D,L-4-benzamido-N, N-dipropylglutaramic acid]?
A: ED50 for potentiation of the analgesic effect (proglumide increasing effect by 50%) ([1]; rat, in vivo, ip): 4.15 mg/kg; ED50 for potentiation of the analgesic effect (proglumide increasing effect by 50%) ([1]; strengthening of propoxyphene): 2.26 mg/kg; increase of the analgesic effect of morphine and methadone [2]: at least double; Average latency (tail flick) [3, 6]: 3.66 ± 0.25 s; t (vs control stress) [3, 6]: 6.90; t (vs control) [3, 6]: 0.37; t (vs control stress) [3, 7]: 0.92; t (vs control) [3, 7]: 5.21; t (vs control stress) [3, 8]: 0.87; t (vs control) [3, 8]: 4.25; t (vs control stress) [3, 9]: 6.14; t (vs control) [3, 9]: 9.54; Average latency (tail flick) ([3]; 1 min after shock, stress + proglumide 1 mg/kg): 6.37 ± 0.45 s; Average latency (tail flick) ([3]; 1 min after shock, stress + proglumide 5 mg/kg): 6.33 ± 0.57 s; Average latency (tail flick) ([3]; 1 min after shock, stress + proglumide 20 mg/kg): 13.59 ± 1.0 s; Average latency (tail flick) [3, 10]: 3.59 ± 0.20 s; t (vs control stress) [3, 10]: 5.88; t (vs control) [3, 10]: 1.36; t (vs control stress) [3, 11]: 0.69; t (vs control) [3, 11]: 5.18; t (vs control stress) [3, 12]: 2.74; t (vs control) [3, 12]: 5.62; t (vs control stress) [3, 13]: 3.90; t (vs control) [3, 13]: 7.29; Average latency (tail flick) ([3]; 5 min after shock, stress + proglumide 1 mg/kg): 6.55 ± 0.43 s; Average latency (tail flick) ([3]; 5 min after shock, stress + proglumide 5 mg/kg): 8.5 ± 0.76 s; Average latency (tail flick) ([3]; 5 min after shock, stress + proglumide 20 mg/kg): 9.16 ± 0.67 s; Average latency (tail flick) [3, 14]: 3.57 ± 0.16 s; t (vs control stress) [3, 14]: 2.57; t (vs control) [3, 14]: 0.12; t (vs control stress) [3, 15]: 0.86; t (vs control) [3, 15]: 1.83; t (vs control stress) [3, 16]: 0.72; t (vs control) [3, 16]: 2.98; t (vs control stress) [3, 17]: 5.01; t (vs control) [3, 17]: 7.02; Average latency (tail flick) ([3]; 10 min after shock, stress + proglumide 1 mg/kg): 4.07 ± 0.22 s; Average latency (tail flick) ([3]; 10 min after shock, stress + proglumide 5 mg/kg): 4.66 ± 0.32 s; Average latency (tail flick) ([3]; 10 min after shock, stress + proglumide 20 mg/kg): 6.94 ± 0.44 s; Average latency (tail flick) [3, 18]: 3.57 ± 0.15 s; t (vs control stress) [3, 18]: 0.04; t (vs control) [3, 18]: 1.49; t (vs control stress) [3, 19]: 0.43; t (vs control) [3, 19]: 0.82; t (vs control stress) [3, 20]: 0.98; t (vs control) [3, 20]: 0.11; t (vs control stress) [3, 21]: 3.34; t (vs control) [3, 21]: 2.89; Average latency (tail flick) ([3]; 15 min after shock, stress + proglumide 1 mg/kg): 3.68 ± 0.16 s; Average latency (tail flick) ([3]; 15 min after shock, stress + proglumide 5 mg/kg): 3.81 ± 0.16 s; Average latency (tail flick) ([3]; 15 min after shock, stress + proglumide 20 mg/kg): 4.78 ± 0.32 s; effect on the analgesic effect of endogenous enkephalins ([3]; proglumide 5 mg/kg): can increase (in one case significantly); effect on the analgesic effect of endogenous enkephalins ([3]; proglumide 20 mg/kg): significantly more marked both in intensity and duration; antagonism of development of tolerance ([4]; proglumide 20 mg/kg): highly significant; effect on development of tolerance induced by morphine ([4]; rat, in vivo, ip): opposes the development of tolerance; % variation in the latency to pain ([5]; 5 min, alone i.c.v.: proglumide 1 or DALA 10 μg/kg): 18.06 ± 10.8%; % variation in the latency to pain ([5]; 15 min, alone i.c.v.: proglumide 1 or DALA 10 μg/kg): 2.18 ± 10.6%; % variation in the latency to pain ([5]; 30 min, alone i.c.v.: proglumide 1 or DALA 10 μg/kg): 18.36 ± 5.9%; % variation in the latency to pain ([5]; 45 min, alone i.c.v.: proglumide 1 or DALA 10 μg/kg): -10.94 ± 14.5%; % variation in the latency to pain ([5]; 60 min, alone i.c.v.: proglumide 1 or DALA 10 μg/kg): -5.58 ± 8.1%; % variation in the latency to pain ([5]; 90 min, alone i.c.v.: proglumide 1 or DALA 10 μg/kg): 13.3 ± 8.4%; Average (0 → 90) % variation in the latency to pain ([5]; alone i.c.v.: proglumide 1 or DALA 10 μg/kg): 5.9 ± 5.12%; action on the analgesic effect of the enkephalinamide (DALA) ([5]; i.c.v.): potentiating action of proglumide on the analgesic effect of the enkephalinamide (DALA) both in intensity and duration; significance of potentiating action on DALA analgesia ([5]; proglumide 1 μg/kg): highly significant; LD50 at 360 h (in vivo): > 5000 mg/kg
